Patent publication US20100159030A1, “METHODS FOR DETECTING AND MODULATING THE SENSITIVITY OF TUMOR CELLS TO ANTI-MITOTIC AGENTS AND FOR MODULATING TURMORGENICITY” (NewSouth Innovations Pty Limited, priority 2007, published 2010)

Tests used:
[1] = tested on: H460 cells; test: Soft agar colony assay (anchorage-independent cell growth); assay type: cell-based, Human; details: vs mock or control siRNA/shRNA cells; 27-mers at 5 nM
Method: H460 cells were transfected with βIII-tubulin siRNA or control siRNA for 24 h as described above. Cells from each sample (1,000 cells per dish) were resuspended in 0.33% agar (37° C.) in RPMI containing 20% FCS, and plated onto 0.5% solidified agar/20% FCS/RPMI (37° C., bottom supportive layer) in 35 mm dishes. Triplicate plates were set up for each sample. The plates were placed at 4° C. for 10 min to solidify the top agar and then incubated at 37° C. in 5% CO2 for 12 days. After 12 days of culture, the colonies were counted and photographed using the Zeiss Axiovert S100 inverted microscope, 5× objective and SPOT digital camera (Thornwood, N.Y.).

[2] = tested on: class III β-tubulin; test: Knockdown of class III β-tubulin expression (western blot, RT-PCR); assay type: cell-based, Human; details: H460, subculturing time course
Method: The effects of βIII-tubulin siRNA transfection on the gene and protein expression of the isotype, were assessed by RT-PCR and western blotting. For RT-PCR, total RNA was extracted from the transfected cells using the Trizol® reagent (Invitrogen), according to the manufacturer's instructions. RNA samples were DNAse-treated, reverse transcribed for RT-PCR analysis using methodology and specific primers as described in detail previously (Kavallaris et al. (1997) J Clin Invest 100, 1282-1293). B eta-2-micro globulin (β2M) was used as an internal mRNA control. Preparation of protein lysates and Western blot analysis were performed as follows. […] Primary antibodies were detected using horseradish peroxidase-linked secondary antibody (Amersham Pharmacia Biotech, Uppsala, Sweden) and enhanced chemiluminescence (GE Healthcare, Uppsala, Sweden) was used for detection. The blots were scanned using the Typhoon® scanner and quantified using ImageQuant® software version 5.2 (Molecular Dynamics Inc, Sunnyvale, Calif.). […]

[3] = tested on: NSCLC H460 cells; test: Drug-treated clonogenic assay (surviving fraction, ID50) on siRNA/shRNA-transfected cells; assay type: cell-based, Human; details: for RS (relative sensitivity): Table 3
Method: Cells were transfected for 24 h and approximately 600 cells (for Calu-6) or 150 cells (for H460) were seeded into each well of a 6-well plate and allowed to attach for 4-6 h. The cell lines used in this study were not subject to prior drug selection, and are likely to represent intrinsic drug resistance observed in lung carcinoma.
Cells were then treated with increasing concentrations of various anti-mitotic drugs. Following a 3-day incubation at 37° C., the drug-containing medium was removed and replaced with fresh complete medium. Medium was changed at 3-4 day intervals for 7 to 10 days until visible colonies formed. […] Surviving colonies were simultaneously fixed and stained with 0.5% crystal violet in methanol, rinsed with water to remove excess stain and air-dried overnight.
The colonies in each well were manually counted, and the results were presented as surviving fraction according to the formula: surviving fraction was calculated as follows: colony number/(number of cells seeded×plating efficiency), where plating efficiency is equivalent to the colony number divided by the number of cells seeded in the drug-free medium. Dose-response curves were plotted for each drug-cell line combination and inhibitory dose (ID50) values were extrapolated from this curve using GraphPad Prism program (GraphPad Software, version 4, San Diego, Calif.). ID50 was defined as the concentration of the drug required to reduce the number of colonies in drug-treated wells to 50% of that of the relevant untreated control wells. The ID50 values were the means of at least four independent experiments.
To quantitate any change in drug sensitivity, drug treated clonogenic assays were performed. Twenty-four hours after siRNA transfection, cells were harvested and plated into 6-well plates for 6 h, prior to the addition of various drugs as indicated in the figure legends. After 72 h incubation, the drug-containing media was removed and replaced with complete growth media. Medium was changed every 3 days for 7 to 10 days until visible colonies formed. Colonies were simultaneously fixed and stained with 0.5% crystal violet in methanol, and manually counted. Individual stained colonies in each well were counted and the surviving fraction was calculated as follows: colony number/(number of cells seeded×plating efficiency), where plating efficiency equals the colony number divided by the number of cells seeded in drug-free media.

[4] = tested on: H460 cells; test: Apoptosis induction, Annexin V-FITC flow cytometry; assay type: cell-based, Human; details: βIII-tubulin siRNA vs control siRNA cells, 48 h; paclitaxel 1, 2, 5 nM; cisplatin 0.4 or 1 μM
Method: Annexin V-FITC staining followed by flow cytometry analysis was performed to address whether the increase in the sub-G1 population following exposure to tubulin-binding agents in the βIII-tubulin siRNA treated cells was related to an increase in apoptosis induction. Apoptosis induction was determined by transfecting H460 cells with siRNA for 72 h and harvesting (adherent and suspension) cells 48 h after drug treatment, as previously described in Pasquier et al., Mol Cancer Ther 2004; 3:1301-10. Briefly, 1×10^5 cells were incubated with Annexin V-FITC and propidium iodide for 15 min in the dark (Becton-Dickinson), immediately followed by flow cytometry using a FACSCalibur (Becton-Dickinson). Cytogram analysis was performed using CellQuest® software.

[5] = tested on: H460 cells stably expressing control or class III β-tubulin shRNA in subcutaneous tumors; test: Nude mouse xenograft, cisplatin (CDDP) treatment of tumors from H460 shRNA clones; assay type: in vivo, BALB/c athymic nude mice; details: 3 doses CDDP 3.33 mg/kg over 3 days
Method: FIG. 22 is a column chart illustrating the mean number of days for tumor to reach 1000 mm^3 post-treatment with cisplatin (CDDP) or phosphate buffered saline control (PBS) in a nude mouse xenograft animal model. Graphs illustrate results for control shRNA clones 1 and 2 with and without CDDP treatment and βIII-tubulin shRNA clones 4 and 59 with and without CDDP treatment. Once tumors reached approx 300 mm3 mice were treated with 3 doses of CDDP 3.33 mg/kg over 3 days or its vehicle control (PBS). Tumors were then measured twice weekly and mice were sacrificed once tumors reached 1000 mm^3 (n=5 mice per treatment group). Mean number of days were: Control clone 1 (PBS) 15.6 days±4.95; Control clone 1 (CDDP) 13 days±4.21; Control clone 2 (PBS) 7.2 days±1.5; Control clone 2 (CDDP) 10.8 days±3.54; class III 3-tubulin shRNA clone 4 (PBS) 15.6 days±3.12; class III β-tubulin shRNA clone 4 (CDDP) 35 days±3.03; class III β-tubulin shRNA clone 59 (PBS) 15.6 days±2.11; class III β-tubulin shRNA clone 59 (CDDP) 29.4 days±3.93.
FIG. 24A is a plot of tumor volume over time in a nude mouse xenograft animal model following treatment with cisplatin (CDDP) or phosphate buffered saline control (PBS). Tumor size was plotted in mm^3 for control clone 2 with or without CDDP post-treatment and class III β-tubulin shRNA clone 4 with and without CDDP post-treatment. Once tumors reached approx 300 mm^3 mice were treated with 3 doses of CDDP (3.33 mg/kg) over 3 days or its vehicle control (PBS). Tumors were then measured twice weekly and mice sacrificed once tumors reached 1000 mm^3 FIG. 24B illustrates Kaplin Meier survival curves for tumors of two different clones with or without class III β-tubulin silencing and following CDDP or PBS vehicle treatment in vivo. Clone 2 was a control clone and clone 4 was class III β-tubulin silenced with shRNA. FIG. 24C is a plot of tumor size over time in a nude mouse xenograft animal model following treatment with cisplatin (CDDP) or phosphate buffered saline control (PBS). […] Tumors were then measured twice weekly and mice sacrificed once tumors reached 1000 mm^3 FIG. 24D illustrates Kaplin Meier survival curves for control clone 2 with and without CDDP post-treatment and for class III β-tubulin shRNA clone 59 with and without CDDP post-treatment. […]
Female BALB/c athymic nude mice (5-6 week old) were maintained under pathogen-free conditions. […] The animals were monitored twice a week from the second week post-injection for tumor formation and health status. Tumor diameter was measured twice per week using a digital caliper throughout the experiment, and tumor volume in mm^3 was calculated using the formula: Volume=(length×width×depth)/2. […]

Compound	number of colonies in soft agar [1]	duration of class III β-tubulin protein knockdown [2] [days]	RS (relative sensitivity) ([3]; Ctrl clone 2 compared to ctrl clone 1)	RS (relative sensitivity) ([3]; βIII shRNA clone 4 compared to ctrl clone 1)	RS (relative sensitivity) ([3]; βIII shRNA clone 59 compared to ctrl clone 1)	RS (relative sensitivity) ([3]; βIII shRNA clone 60 compared to ctrl clone 1)	change in drug sensitivity (clonogenic survival) ([3]; βIII-tubulin siRNA silencing vs controls, H460)	percentage of apoptotic cells [4]	mean number of days for tumor to reach 1000 mm^3 post-treatment ([5]; Control clone 1) [days]	mean number of days for tumor to reach 1000 mm^3 post-treatment ([5]; Control clone 2) [days]	mean number of days for tumor to reach 1000 mm^3 post-treatment ([5]; class III β-tubulin shRNA clone 4) [days]	mean number of days for tumor to reach 1000 mm^3 post-treatment ([5]; class III β-tubulin shRNA clone 59) [days]
27-mer βIII siRNA Sequence-8: 27-mer siRNA to class III β-tubulin, SEQ ID NO: 11 and 12, position 1521-1545 (chain 1 AGACAGAGACAGGAGCAGCUCACACGU; chain 2 GUGUGAGCUGCUCCUGUCUCUGUCT; chemistry not given here)	significantly less colonies											
27-mer βIII siRNA Sequence-11: 27-mer siRNA to class III β-tubulin, SEQ ID NO: 13 and 14, position 1352-1376 (chain 1 UCUCACUCCAGCUGCGAGCAGCUUCAC; chain 2 GAAGCUGCUCGCAGCUGGAGUGAGA; listed as RNA, chemistry not given here)	significantly less colonies	6										
[NH2][Pt]([NH2])([Cl])[Cl] [CDDP, cisplatin]			(1.06, NS)	(2.42, 0.0002***)	(1.86, 0.001**)	(1.72, 0.0019**)	increased sensitivity	significant increase in the number of apoptotic cells	13	10.8	35	29.4
